Experimental data from patent US11370769B2, “TRPC5 inhibitors and methods of using same” (BOARD OF REGENTS OF THE UNIVERSITY OF NEBRASKA, priority 2017, dated 2022).

Experiments:
caAT1R podocytes [1] = experiment: Cell viability assay in podocytes expressing caAT1R; assay type: cell-based, mouse; conditions: 30 μM ML204, 30 μM AC1903 or 50 μM NSC23677 for 36 hours
Method: (§1) Podocyte culture and viral transduction: Immortalized mouse podocytes were cultured as previously described (10, 11). Podocyte viral transduction was performed using lentivirus as previously described (10, 11). Briefly, lentivirus production was carried out in HEK293T cells at 60% confluence, and viral particles were collected two days after transfection and purified by centrifugation at 1,000 rcf for 5 min. Purified lentivirus was frozen at −80° C. until further use. Podocytes were transduced with lentivirus after 7 days of differentiation, and assays were performed 5 days after viral transduction.
(§2) For experiments in FIG. 4B/C, pCDNA3.1 AT1AR-Δ324 (rat AT1R NM_030985.4) containing HA tag (Plasmid #45635, Addgene) underwent site directed mutagenesis (Agilent) to generate the N111S substitution. For FIG. 4B, differentiated podocytes were transduced with the AT1A-N111S/Δ324 construct in six-well plates. Six days after viral transduction, cells were treated with either vehicle, 30 μM ML204, 30 μM AC1903 or 50 μM NSC23677 for 36 hours. Intracellular production of ROS was measured using a cell-permeable fluorescent dye, 5-(and-6)-chloromethyl-2′,7′-dichlorodihydrofluorescein diacetate, acetyl ester (CM-H2DCFDA, Molecular Probes). Cells were incubated with 5 μM CM-H2DCFDA at 37° C. for 45 min in Hanks' balanced salt solution (HBSS). Cells were then collected, resuspended in HBSS, stained with propidium iodide and the fluorescence intensity was assessed by flow cytometry using MACSQuant Analyzer (Miltenyi Biotec, Bergisch Gladbach, Germany). Living cells, which were PI negative, were selected by FACS gating and the fluorescence of CM-H2DCFDA was recorded on the FL-1 channel (525 nm). For FIG. 4C, differentiated podocytes were transduced with the AT1A-N111S/Δ324 construct in 96 well plates. Six days after transduction, the cells were treated with either vehicle, 30 μM ML204, 30 μM AC1903 or 50 μM NSC23677 for 36 hours. […]

caAT1R podocytes [2] = experiment: ROS assay in caAT1R expressing podocytes; assay type: cell-based, mouse; conditions: 30 μM ML204, 30 μM AC1903 or 50 μM NSC23677 for 36 hours
Method: as §1, §2

TRPC5 = target: T1, TRPC5 (Homo sapiens, UniProt Q9UL62); experiment: HEK293 whole-cell patch clamp recording, TRPC5 inhibition assay; assay type: cell-based; conditions: for IC50: dose response, whole cell patch clamp, HEK cells expressing TRPC5, Rilu (3 μM)
T1 construct: expressed in transfected cells; host or cells: HEK293
T1 sequence (Q9UL62 1-973): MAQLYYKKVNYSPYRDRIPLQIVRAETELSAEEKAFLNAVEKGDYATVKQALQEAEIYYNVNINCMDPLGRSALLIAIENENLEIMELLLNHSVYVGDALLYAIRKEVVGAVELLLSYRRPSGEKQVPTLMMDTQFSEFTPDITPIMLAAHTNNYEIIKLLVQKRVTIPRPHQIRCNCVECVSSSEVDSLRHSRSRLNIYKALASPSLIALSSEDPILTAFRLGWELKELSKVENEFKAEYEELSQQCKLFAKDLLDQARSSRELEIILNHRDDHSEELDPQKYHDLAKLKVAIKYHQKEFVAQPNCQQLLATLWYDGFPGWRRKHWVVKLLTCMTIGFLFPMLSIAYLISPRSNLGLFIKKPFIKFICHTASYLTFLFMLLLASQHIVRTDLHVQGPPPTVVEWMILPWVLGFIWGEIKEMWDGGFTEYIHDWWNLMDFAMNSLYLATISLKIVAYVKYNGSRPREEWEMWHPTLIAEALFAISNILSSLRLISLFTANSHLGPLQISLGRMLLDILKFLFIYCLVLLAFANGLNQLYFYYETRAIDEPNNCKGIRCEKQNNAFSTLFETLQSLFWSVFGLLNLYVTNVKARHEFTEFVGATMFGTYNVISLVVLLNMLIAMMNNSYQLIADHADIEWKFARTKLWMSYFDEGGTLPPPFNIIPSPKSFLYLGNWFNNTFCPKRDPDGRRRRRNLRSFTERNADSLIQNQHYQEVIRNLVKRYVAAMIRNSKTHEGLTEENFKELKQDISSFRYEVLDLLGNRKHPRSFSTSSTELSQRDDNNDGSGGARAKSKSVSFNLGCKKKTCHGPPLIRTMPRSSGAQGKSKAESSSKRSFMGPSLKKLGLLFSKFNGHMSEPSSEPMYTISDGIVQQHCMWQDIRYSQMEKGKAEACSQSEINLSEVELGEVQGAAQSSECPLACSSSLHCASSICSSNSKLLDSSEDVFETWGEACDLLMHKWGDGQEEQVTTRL
Method: TRPC4, TRPC5, and TRPC6 inhibition assay: HEK293 whole-cell recordings Whole-cell patch clamp recording was performed 16 h after transfection. The bath solution contained (in mM): 140 NaCl, 5 KCl, 10 HEPES, 2 MgCl2, 2 CaCl2, 10 glucose with pH7.4 adjusted with NaOH. The intracellular solution contained (in mM): 140 KCl, 5 EGTA, 10 HEPES, 2 MgCl2 with pH7.4 adjusted with KOH. The patch pipettes were made using a two-step-protocol (P-97, Sutter Instrument). The pipette resistance was maintained between 4 to 8 MΩ. Once the whole-cell configuration was achieved, cells were clamped at a holding potential of −60 mV, and given a 50 ms ramp stimulation from −100 mV to +100 mV in every 5 s. All currents were filtered at 2 KHz (Axopatch 200B amplifier, Axon Instruments, Union City, Calif.) and digitized at 10 KHz for whole-cell recordings using Axon pCLAMP 10.4. Data were then analyzed using Clampfit 10.4 (Molecular Devices).
HEK293 cell culture and transfection: Transfection of HEK293 cells was carried out using Plus reagent (Invitrogen) and Lipofectamine (Invitrogen) according to standard protocols. For heterologous expression of TRP channels in HEK293 cells, 1 μg of TRPC5-GFP, TRPC6-GFP or TRPC4-GFP plasmids were used to transfect HEK293 cells in a 3.5 cm petri dish where cells were allowed to grow to 80% confluence. Electrophysiology was carried out after 16 h incubation.

| SMILES | podocyte cell death on caAT1R expression (caAT1R podocytes [1]) | caAT1R-induced ROS generation (caAT1R podocytes [2]) | IC50 (TRPC5) [µM] | block of riluzole-activated TRPC5 whole-cell current (TRPC5; 30 μM, HEK cells expressing TRPC5) |
| --- | --- | --- | --- | --- |
| Cc1cc(N2CCCCC2)nc2ccccc12 [ML204, reference compound] | protected from cell death | blocked caAT1R-induced ROS generation | 13.6 | – |
| c1ccc(Cn2c(NCc3ccco3)nc3ccccc32)cc1 [AC1903] | protected from cell death | blocked caAT1R-induced ROS generation | 14.7 | blocked |
